Values of other authors in patent US12485291B2, “Method for treatment of cholangiocarcinoma with cold atmospheric plasma and folfirinox” (Jerome Canady Research Institute for Advanced Biological …, priority 2019, dated 2025).

Tested on: metastatic pancreatic cancer
Settings: patients with metastatic pancreatic cancer

Nc1ccn([C@@H]2O[C@H](CO)[C@@H](O)C2(F)F)c(=O)n1 [gemcitabine]
overall survival: 6.8 months
